Data as given in the NIST ThermoML archive (doi:10.1016/j.fluid.2017.01.019).

What was measured:
[1] = xn = mol fraction of the nth substance listed; settings: 100 kPa, Liquid, x2 = 0; for mass density: Vibrating tube method; for viscosity: Falling or rolling sphere viscometry; for speed of sound: Frequency=3 MHz, Sing-around technique in a fixed-path interferometer
[2] = 101.33 kPa, Liquid; for viscosity: Falling or rolling sphere viscometry; for speed of sound: Sing-around technique in a fixed-path interferometer; for mass density: Vibrating tube method

CCCCO [butan-1-ol] + CCOS(=O)(=O)[O-].CCn1cc[n+](C)c1
[1]
Settings | mass density [kg/m3] | speed of sound [m/s] | viscosity [mPa·s]
289.15 K | 806.27 | – | –
298.15 K | – | 1241.1 | 2.61
303.15 K | 802.42 | 1224.3 | 2.31
308.15 K | 798.536 | 1207.5 | 2.07
313.15 K | 794.617 | 1190.9 | 1.85
318.15 K | 790.655 | 1174.2 | 1.66
323.15 K | 786.645 | 1157.6 | 1.5

CCOS(=O)(=O)[O-].CCn1cc[n+](C)c1 [1-ethyl-3-methylimidazolium ethyl sulfate]
[2]
Settings | mass density [kg/m3] | speed of sound [m/s] | viscosity [mPa·s]
298.15 K | 1236.33 | 1682.3 | 96.21
303.15 K | 1232.93 | 1670 | 75.89
308.15 K | 1229.57 | 1657.9 | 60.73
313.15 K | 1226.21 | 1645.9 | 49.38
318.15 K | 1222.87 | 1634.1 | 40.93
323.15 K | 1219.54 | 1622.3 | 33.82

CO [methanol] + CCCCO
[1]
Settings | mass density [kg/m3] | speed of sound [m/s] | viscosity [mPa·s]
293.15 K | – | – | 0.55
298.15 K | 786.884 | 1103.3 | –
303.15 K | 782.158 | 1086.9 | 0.51
308.15 K | 777.414 | 1070.6 | 0.48
313.15 K | 772.64 | 1054.5 | 0.45
318.15 K | 767.844 | 1038.5 | 0.43
323.15 K | 763.028 | 1022.5 | 0.41

CO [methanol] + CCOS(=O)(=O)[O-].CCn1cc[n+](C)c1
[1]
Settings | mass density [kg/m3] | speed of sound [m/s] | viscosity [mPa·s]
298.15 K | 786.884 | – | 0.55
303.15 K | 782.158 | 1086.9 | 0.51
308.15 K | 777.414 | 1070.6 | 0.48
313.15 K | 772.64 | 1054.5 | 0.45
318.15 K | 767.844 | 1038.5 | 0.43
323.15 K | 763.028 | 1022.5 | 0.41

CCCCO [butan-1-ol]
[2]
Settings | mass density [kg/m3] | speed of sound [m/s] | viscosity [mPa·s]
298.15 K | 806.27 | 1239.8 | 2.61
303.15 K | 802.42 | 1223.2 | 2.31
308.15 K | 798.536 | 1206.3 | 2.07
313.15 K | 794.617 | 1189.7 | 1.85
318.15 K | 790.655 | 1173.1 | 1.66
323.15 K | 786.645 | 1156.5 | 1.5

CO [methanol]
[2]
Settings | mass density [kg/m3] | speed of sound [m/s] | viscosity [mPa·s]
298.15 K | 786.884 | 1103.3 | 0.55
303.15 K | 782.158 | 1086.9 | 0.51
308.15 K | 777.414 | 1070.6 | 0.48
313.15 K | 772.64 | 1054.5 | 0.45
318.15 K | 767.844 | 1038.5 | 0.43
323.15 K | 763.028 | 1022.5 | 0.41
